Data from patent publication EP1254122B1, “NOVEL 3-SUBSTITUTED 1,2,4-BENZOTRIAZINES, A METHOD FOR THEIR PRODUCTION AND THE USE THEREOF” (UFZ-UMWELTFORSCHUNGSZENTRUM Leipzig-Halle GmbH, priority 1999, dated 2001).
Converted amounts (≈) assume the structure as drawn.

Experiments:
Format in all cases: cell-based
HeLa = assay: Inhibition of cell growth, HeLa cells; details: 37°C, three days, evaluated by microscope against untreated reference cells; for IC50: Homo sapiens, 72 h, read-out: IC50-Wert (50%ige Hemmung des Zellwachstums in µg/ml)
Procedure: (§1) Zu je 1 ml einer entsprechenden Zellstammlösung werden die zu testenden Substanzen in wäßriger steriler Lösung in Konzentrationsschritten von je 2-50 µg gespritzt. Die Testkammern werden anschließend zusammen mit einer unbehandelten Referenzkammer bei 37°C drei Tage entwickelt.
(§2) Die Auswertung erfolgt mittels Mikroskop. Es werden Zellvermehrung bzw. Zellzerstörung (Zustand der Zellmembran sowie des Zellkern) mit unbehandelten Referenzzellen verglichen. Tabelle: IC50-Wert (50%ige Hemmung des Zellwachstums in µg/ml) ausgewählter Substanzen der Formel I

Hep2 = assay: Inhibition of cell growth, Hep2 cells; details: 37°C, three days, evaluated by microscope against untreated reference cells; for IC50: Homo sapiens, HEp-2, 72 h, read-out: IC50-Wert (50%ige Hemmung des Zellwachstums in µg/ml)
Procedure: as §1, §2

Peritoneal carcinom = assay: Inhibition of cell growth, peritoneal carcinoma cells; details: 37°C, three days, evaluated by microscope against untreated reference cells; for IC50: 72 h, read-out: IC50-Wert (50%ige Hemmung des Zellwachstums in µg/ml)
Procedure: as §1, §2

Pleurocarcinom = assay: Inhibition of cell growth, pleural carcinoma cells; details: 72 h, 37°C, three days, evaluated by microscope against untreated reference cells, read-out: IC50-Wert (50%ige Hemmung des Zellwachstums in µg/ml)
Procedure: as §1, §2

permanenten Zellkulturen = assay: Inhibition of cell growth, permanent cell cultures (overall statement); details: result in words; HeLa-, Hep2-, Peritonealcarcinom- and Pleurocarcinomzellen
Procedure: as §1, §2
Die erfindungsgemäßen Verbindungen hemmen sämtlich das Zellwachstum von permanenten Zellkulturen wie z.B. von HeLa-, Hep2-Zellen, von Peritonealcarcinom- sowie von Pleurocarcinomzellen.

Row | IC50-Wert (50%ige Hemmung des Zellwachstums in µg/ml) (HeLa) [µg/mL] | Compound | IC50-Wert (50%ige Hemmung des Zellwachstums in µg/ml) (Hep2) [µg/mL] | IC50-Wert (50%ige Hemmung des Zellwachstums in µg/ml) (Peritoneal carcinom) [µg/mL] | IC50 (Hep2) [µg/mL] | IC50 (HeLa) [µg/mL] | IC50 (Peritoneal carcinom) [µg/mL] | IC50 (Pleurocarcinom) [µg/mL] | Hemmung des Zellwachstums (Wirksamkeit) (permanenten Zellkulturen)
1 | 400 | 3-(D-galacto-Tetritol-1-yl)-1,2,4-benzotriazin [Verbindung i] | – | – | – | – | – | – | –
2 | 160 (≈ 673 µM) | COC(=O)Cc1nnc2ccc(Cl)cc2n1 [Verbindung b, 3-(Methoxy-carbonylmethyl)-6-chlor-benzo-1,2,4-triazin] | 120 (≈ 505 µM) | 150 (≈ 631 µM) | – | – | – | – | –
3 | 250 (≈ 875 µM) | OC[C@@H](O)[C@@H](O)[C@H](O)c1nnc2ccc(Cl)cc2n1 [Verbindung k, 3-(D-arabino-Tetritol-1-yl)-6-chlor-benzo-1,2,4-triazin] | – | – | – | – | – | – | –
4 | – | OC[C@@H](O)[C@@H](O)[C@H](O)c1nnc2ccccc2n1 [Verbindung h, 3-(D-arabino-Tetritol-1-yl)-1,2,4-benzotriazin] | – | – | 150 (≈ 597 µM) | 150 (≈ 597 µM) | – | – | –
5 | 50 (≈ 198 µM) | COC(=O)Cc1nnc2ccc(Cl)c(N)c2n1 [Verbindung d, 3-(Methoxy-carbonylmethyl)-5-amino-6-chlor-benzo-1,2,4-triazin] | – | 25 to 30 | – | – | – | – | –
6 | – | COC(=O)Cc1nnc2ccccc2n1 [Verbindung e, 3-(Methoxy-carbonylmethyl)-1,2,4-benzotriazin] | – | – | 100 (≈ 492 µM) | 180 (≈ 886 µM) | 350 (≈ 1720 µM) | 500 (≈ 2460 µM) | –
7 | 8 to 16 | CCOC(=O)Cc1nnc2ccc(Br)cc2n1 [Verbindung g, 3-(Ethoxy-carbonylmethyl)-6-brom-benzo-1,2,4-triazin] | 8 to 16 | 35 (≈ 118 µM) | – | – | – | – | bevorzugte Wirksamkeit
8 | – | CC(C)NC(=O)Cc1nnc2ccccc2n1 [Verbindung l, 3-(Isopropylamino-carbonylmethyl)-1,2,4-benzotriazin] | – | – | 100 (≈ 434 µM) | 86 (≈ 373 µM) | 170 (≈ 738 µM) | – | bevorzugte Wirksamkeit
9 | – | CCOC(=O)Cc1nnc2ccccc2n1 [Verbindung f, 3-(Ethoxy-carbonylmethyl)-1,2,4-benzotriazin] | – | – | 190 to 200 (≈ 875 to 921 µM) | 378 (≈ 1740 µM) | 180 (≈ 829 µM) | 500 (≈ 2300 µM) | –
10 | 8 to 16 | COC(=O)Cc1nnc2cccc(Cl)c2n1 [Verbindung c, 3-(Methoxy-carbonylmethyl)-5-chlor-benzo-1,2,4-triazin] | 16 (≈ 67.3 µM) | 12 (≈ 50.5 µM) | – | – | – | – | bevorzugte Wirksamkeit
